Bounds are passed on as bounds.

We go through 15 molecules from US10669290B2, “Beta-lactamase inhibitors” (priority 2012, dated 2020).

Holding throughout (format): cell-based
For assay [1], the system named is K.P. 156319 KPC-3. Description: Broth microdilution MIC, K. pneumoniae 156319. Conditions: Klebsiella pneumoniae; fixed meropenem 4 μg/mL, CAMHB, 16-20 hours 37° C.; read-out: MIC of exemplary compounds in presence of fixed β-lactams, Fixed Mero, K.P. 156319 KPC-3. For orientation: In broth dilution the organism is exposed to a series of concentrations in liquid medium.

The test system of assay [2] is S. aureus MSSA-7 PC-1. The assay is described as follows: Broth microdilution MIC, S. aureus MSSA-7. Conditions: Staphylococcus aureus, fixed piperacillin 4 μg/mL, CAMHB, 16-20 hours 37° C., read-out: MIC of exemplary compounds in presence of fixed β-lactams, Fixed Pip, S. aureus MSSA-7 PC-1. An excerpt: (§1) To determine the ability of test compounds to potentiate the inhibition of the growth of bacterial strains that produce beta-lactamase enzymes, classic cell based broth microdilution MIC assays were employed. Six bacteria strains producing beta-lactamase enzymes were used: E. coli expressing the Class A Extended Spectrum Beta-Lactamase (ESBL) CTX-M-15, E. cloacae expressing the Class C P99, K. pneumoniae expressing the Class A carbapenemase KPC-2, P. aeruginosa expressing the Class B carbapenemase VIM-2, K. pneumoniae expressing the class A carbapenemase KPC-2 and the class B carbapenemase VIM-4, and S. aureus producing the Class A penicillinase PC-1. The assay was conducted in Cation Adjusted Mueller Hinton Broth (CAMHB, BD #212322, BD Diagnostic Systems, Sparks, Md.). Bacteria strains were grown for 3-5 hours in CAMBH broth. Test compounds were added to a microtiter plate in 2-fold serial dilutions in CAMHB in a final concentration range of 32 μg/mL to 0.25 μg/ml. An overlay of CAMHB containing a Beta-lactam was added to the compounds at a final static concentration of 4 μg/ml. […] In addition to the titration of test compounds the MICs of a panel of control beta-lactams is also tested to ensure the strains are behaving consistently from test to test. Once the test compound and antibiotics are added the plates can be inoculated according to CLSI broth microdilution method. After inoculation the plates are incubated for 16-20 hours at 37° C. then the Minimal Inhibitory Concentration (MIC) of the test compound is determined visually.
(§2) Using the methodology described above in EXAMPLE III, exemplary compounds for Formula I or Formula Ia were evaluated for their ability to inhibit the growth of β-lactamase producing bacteria in the presence of a β-lactam antibiotic.

The subject of assay [3] is K.P. A-1797 KPC-2 VIM-4. Description: Broth microdilution MIC, K. pneumoniae A-1797. To be noted: Klebsiella pneumoniae; fixed meropenem 4 μg/mL, CAMHB, 16-20 hours 37° C.; read-out: MIC of exemplary compounds in presence of fixed β-lactams, Fixed Mero, K.P. A-1797 KPC-2 VIM-4.
Source text: as §1, §2

The test system of assay [4] is E. cl 144200 p99 AmpC. Description: Broth microdilution MIC, E. cloacae 144200. Conditions: Enterobacter cloacae; fixed ceftazidime 4 μg/mL, CAMHB, 16-20 hours 37° C.; read-out: MIC of exemplary compounds in presence of fixed β-lactams, Fixed CAZ, E. cl 144200 p99 AmpC.
Source text: as §1, §2

For assay [5], the system named is E. coli ESBL4 CTX-M-15. Description: Broth microdilution MIC, E. coli ESBL4. Conditions: Escherichia coli, ESBL4CTXM15; fixed ceftazidime 4 μg/mL, CAMHB, 16-20 hours 37° C.; read-out: MIC of exemplary compounds in presence of fixed β-lactams, Fixed CAZ, E. coli ESBL4 CTX-M-15.
Source text: as §1, §2

For assay [6], the system named is P. aerug. Ps296 VIM-2. Description: Broth microdilution MIC, P. aeruginosa Ps296. Conditions: Pseudomonas aeruginosa; fixed meropenem 4 μg/mL, CAMHB, 16-20 hours 37° C.; read-out: MIC of exemplary compounds in presence of fixed β-lactams, Fixed Mero, P. aerug. Ps296 VIM-2.
Source text: as §1, §2

In general, MIC refers to the lowest concentration that inhibits growth of the organism. Take `O=C(C[C@H]1CC[C@H](NCCN(CC2CC2)CC2CC2)CC1)N[C@H]1Cc2cccc(C(=O)O)c2OB1O` [Example 75, (R)-3-(2-(trans-4-(2-(bis(cyclopropylmethyl)amino)ethylamino)cyclohexyl)acetamido)-2-hydroxy-3,4-dihydro-2H-benzo[e][1,2]oxaborinine-8-carboxylic acid]: the minimum inhibitory concentration (MIC) in assay [1], in assay [2], in assay [3], in assay [4], in assay [5] and in assay [6] was below 4 µg/mL throughout.

Regarding `O=C(C[C@H]1CC[C@H](NCc2cnc[nH]2)CC1)N[C@H]1Cc2cccc(C(=O)O)c2OB1O` [Example 70, (R)-3-(2-(trans-4-((1H-imidazol-5-yl)methylamino)cyclohexyl)acetamido)-2-hydroxy-3,4-dihydro-2H-benzo[e][1,2]oxaborinine-8-carboxylic acid], the minimal inhibitory concentration (MIC) in assay [1] was below 4 µg/mL; in assay [2] it was below 4 µg/mL; in assay [3], 8 to 32 µg/mL; in assay [4] it was below 4 µg/mL; in assay [5], below 4 µg/mL; in assay [6], below 4 µg/mL.

Take `O=C(C[C@H]1CC[C@H](NCc2cccnc2)CC1)N[C@H]1Cc2cccc(C(=O)O)c2OB1O` [Example 27, (R)-2-hydroxy-3-(2-(trans-4-(pyridin-3-ylmethylamino)cyclohexyl)acetamido)-3,4-dihydro-2H-benzo[e][1,2]oxaborinine-8-carboxylic acid]: the MIC in assay [1] was below 4 µg/mL; in assay [2], below 4 µg/mL; in assay [3], 8 to 32 µg/mL; in assay [4], below 4 µg/mL; in assay [5] it was below 4 µg/mL; in assay [6], 8 to 32 µg/mL.

As for `N=C(N)NCCN[C@H]1CC[C@H](CC(=O)N[C@H]2Cc3cccc(C(=O)O)c3OB2O)CC1` [Example 25, (R)-3-(2-(trans-4-(2-guanidinoethylamino)cyclohexyl)acetamido)-2-hydroxy-3,4-dihydro-2H-benzo[e][1,2]oxaborinine-8-carboxylic acid], the minimal inhibitory concentration (MIC) in assay [1], in assay [2], in assay [3], in assay [4], in assay [5] and in assay [6] was below 4 µg/mL throughout.

On to `N[C@@H](C(=O)N[C@H]1Cc2cccc(C(=O)O)c2OB1O)C1CCCCC1` [Example 42, (R)-3-((R)-2-amino-2-cyclohexylacetamido)-2-hydroxy-3,4-dihydro-2H-benzo[e][1,2]oxaborinine-8-carboxylic acid], for which the MIC is below 4 µg/mL in assay [1]; 8 to 32 µg/mL in assay [2]; 8 to 32 µg/mL in assay [3]; below 4 µg/mL in assay [4]; below 4 µg/mL in assay [5]; below 4 µg/mL in assay [6].

For `N=C(N)N1CCC(CN[C@H]2CC[C@H](CC(=O)N[C@H]3Cc4cccc(C(=O)O)c4OB3O)CC2)CC1` [Example 34, (R)-3-(2-(trans-4-((1-carbamimidoylpiperidin-4-yl)methylamino)cyclohexyl)acetamido)-2-hydroxy-3,4-dihydro-2H-benzo[e][1,2]oxaborinine-8-carboxylic acid], the MIC in assay [1] was below 4 µg/mL; in assay [2], below 4 µg/mL; in assay [3], 8 to 32 µg/mL; in assay [4], below 4 µg/mL; in assay [5], below 4 µg/mL; in assay [6], below 4 µg/mL.

`O=C(C[C@H]1CC[C@H](N2CCNCC2)CC1)N[C@H]1Cc2cccc(C(=O)O)c2OB1O` [Example 16, (R)-2-hydroxy-3-(2-(trans-4-(piperazin-1-yl)cyclohexyl)acetamido)-3,4-dihydro-2H-benzo[e][1,2]oxaborinine-8-carboxylic acid]: the MIC in assay [1] was below 4 µg/mL; in assay [2] it was below 4 µg/mL; in assay [3], above 32 µg/mL; in assay [4], below 4 µg/mL; in assay [5] it was below 4 µg/mL; in assay [6] it was 8 to 32 µg/mL.

As to `NC[C@H]1CC[C@H](CC(=O)N[C@H]2Cc3cccc(C(=O)O)c3OB2O)CC1` [Example 3], the MIC is below 4 µg/mL in assay [1]; below 4 µg/mL in assay [2]; 8 to 32 µg/mL in assay [3]; below 4 µg/mL in assay [4]; below 4 µg/mL in assay [5]; below 4 µg/mL in assay [6].

In the case of `NC[C@H](N)C(=O)N[C@H]1CC[C@H](CC(=O)N[C@H]2Cc3cccc(C(=O)O)c3OB2O)CC1` [Example 13, (R)-3-(2-(trans-4-((S)-2,3-diaminopropanamido)cyclohexyl)acetamido)-2-hydroxy-3,4-dihydro-2H-benzo[e][1,2]oxaborinine-8-carboxylic acid], the MIC was 8 to 32 µg/mL in assay [1]; below 4 µg/mL in assay [2]; 8 to 32 µg/mL in assay [3]; below 4 µg/mL in assay [4]; below 4 µg/mL in assay [5]; below 4 µg/mL in assay [6].

For `NC1CC(CC(=O)N[C@H]2Cc3cccc(C(=O)O)c3OB2O)C1` (stereo partly drawn) [Example 56, (R)-3-(2-(3-aminocyclobutyl)acetamido)-2-hydroxy-3,4-dihydro-2H-benzo[e][1,2]oxaborinine-8-carboxylic acid], the minimum inhibitory concentration (MIC) in assay [1], in assay [2], in assay [3], in assay [4], in assay [5] and in assay [6] was below 4 µg/mL throughout.

Turning to `O=C(C[C@H]1CC[C@H](NCCNc2ccccn2)CC1)N[C@H]1Cc2cccc(C(=O)O)c2OB1O` [Example 48, (R)-2-hydroxy-3-(2-(trans-4-(2-(pyridin-2-ylamino)ethylamino)cyclohexyl)acetamido)-3,4-dihydro-2H-benzo[e][1,2]oxaborinine-8-carboxylic acid], the MIC in assay [1] was below 4 µg/mL; in assay [2], below 4 µg/mL; in assay [3], 8 to 32 µg/mL; in assay [4], below 4 µg/mL; in assay [5], below 4 µg/mL; in assay [6] it was 8 to 32 µg/mL.

Take `O=C(O)CN[C@H]1CC[C@H](CC(=O)N[C@H]2Cc3cccc(C(=O)O)c3OB2O)CC1` [Example 28, (R)-3-(2-(trans-4-(carboxymethylamino)cyclohexyl)acetamido)-2-hydroxy-3,4-dihydro-2H-benzo[e][1,2]oxaborinine-8-carboxylic acid]: the minimum inhibitory concentration (MIC) in assay [1] was below 4 µg/mL; in assay [2], below 4 µg/mL; in assay [3] it was above 32 µg/mL; in assay [4], below 4 µg/mL; in assay [5], below 4 µg/mL; in assay [6] it was 8 to 32 µg/mL.

In the case of `NCCN[C@H]1CC[C@H](CC(=O)N[C@@H]2Cc3cccc(C(=O)O)c3OB2O)CC1` [Example 50, (S)-3-(2-(trans-4-(2-aminoethylamino)cyclohexyl)acetamido)-2-hydroxy-3,4-dihydro-2H-benzo[e][1,2]oxaborinine-8-carboxylic acid], the MIC in assay [1] is above 32 µg/mL; in assay [2], below 4 µg/mL; in assay [3], 8 to 32 µg/mL; in assay [4] it was below 4 µg/mL; in assay [5], below 4 µg/mL; in assay [6], below 4 µg/mL.

Regarding `O=C(C[C@H]1CC[C@H](NCCNc2ncccn2)CC1)N[C@H]1Cc2cccc(C(=O)O)c2OB1O` [Example 72], the MIC in assay [1] is below 4 µg/mL; in assay [2] it was below 4 µg/mL; in assay [3], 8 to 32 µg/mL; in assay [4] it was below 4 µg/mL; in assay [5] it was below 4 µg/mL; in assay [6] it was below 4 µg/mL.

On to `NCCNC[C@H]1CC[C@H](CC(=O)N[C@H]2Cc3cccc(C(=O)O)c3OB2O)CC1` [Example 10, (R)-3-(2-(trans-4-((2-aminoethylamino)methyl)cyclohexyl)acetamido)-2-hydroxy-3,4-dihydro-2H-benzo[e][1,2]oxaborinine-8-carboxylic acid], for which the minimum inhibitory concentration (MIC) in assay [1] is below 4 µg/mL; in assay [2] it was below 4 µg/mL; in assay [3] it was below 4 µg/mL; in assay [4], below 4 µg/mL; in assay [5] it was below 4 µg/mL; in assay [6], 8 to 32 µg/mL.
